Experimental data published in US12622875B2, “Dosage form comprising an alkaline agent and an enteric coating layer” (Evonik Operations GmbH, priority 2019, dated 2026).
Where a name gives a salt, the structure may show the parent alone.

Columns and labels:
[1] = Benazepril HCl API solution stability at different pH and temperature (HPLC % assay); type: physicochemical
[2] = Pantoprazole Sodium solution stability at different pH and temperature (HPLC % assay); type: physicochemical

CCOC(=O)[C@H](CCc1ccccc1)N[C@H]1CCc2ccccc2N(CC(=O)O)C1=O [Benazepril HCl]
% Assay of Benazepril HCl ([1]; pH 1.2, 22° C., Initial): 101% | % Assay of Benazepril HCl ([1]; pH 1.2, 40° C., 2 Hour): 100% | % Assay of Benazepril HCl ([1]; pH 1.2, 40° C., 4 Hour): 100% | % Assay of Benazepril HCl ([1]; pH 1.2, 40° C., 24 Hour): 99% | % Assay of Benazepril HCl ([1]; pH 3, 22° C., Initial): 100% | % Assay of Benazepril HCl ([1]; pH 3, 40° C., 2 Hour): 99% | % Assay of Benazepril HCl ([1]; pH 3, 40° C., 4 Hour): 99% | % Assay of Benazepril HCl ([1]; pH 3, 40° C., 24 Hour): 98% | % Assay of Benazepril HCl ([1]; pH 4, 22° C., Initial): 100% | % Assay of Benazepril HCl ([1]; pH 4, 40° C., 2 Hour): 99% | % Assay of Benazepril HCl ([1]; pH 4, 40° C., 4 Hour): 99% | % Assay of Benazepril HCl ([1]; pH 4, 40° C., 24 Hour): 98% | % Assay of Benazepril HCl ([1]; pH 7, 22° C., Initial): 100% | % Assay of Benazepril HCl ([1]; pH 7, 40° C., 2 Hour): 100% | % Assay of Benazepril HCl ([1]; pH 7, 40° C., 4 Hour): 100% | % Assay of Benazepril HCl ([1]; pH 7, 40° C., 24 Hour): 97% | % Assay of Benazepril HCl ([1]; pH 9, 22° C., Initial): 101% | % Assay of Benazepril HCl ([1]; pH 9, 40° C., 2 Hour): 99% | % Assay of Benazepril HCl ([1]; pH 9, 40° C., 4 Hour): 99% | % Assay of Benazepril HCl ([1]; pH 9, 40° C., 24 Hour): 91%

COc1ccnc(C[S+]([O-])c2nc3ccc(OC(F)F)cc3[nH]2)c1OC (centres unmarked) [Pantoprazole Sodium]
% Assay of Pantoprazole Sodium ([2]; pH 1.2, 22° C., 15 min): 27% | % Assay of Pantoprazole Sodium ([2]; pH 1.2, 22° C., 30 min): 13% | % Assay of Pantoprazole Sodium ([2]; pH 1.2, 22° C., 60 min): 7% | % Assay of Pantoprazole Sodium ([2]; pH 1.2, 22° C., 120 min): 5% | % Assay of Pantoprazole Sodium ([2]; pH 1.2, 22° C., Initial): 88% | % Assay of Pantoprazole Sodium ([2]; pH 1.2, 40° C., 15 min): 17% | % Assay of Pantoprazole Sodium ([2]; pH 1.2, 40° C., 30 min): 6% | % Assay of Pantoprazole Sodium ([2]; pH 1.2, 40° C., 60 min): 4% | % Assay of Pantoprazole Sodium ([2]; pH 1.2, 40° C., 120 min): 3% | % Assay of Pantoprazole Sodium ([2]; pH 3.0, 22° C., 15 min): 32% | % Assay of Pantoprazole Sodium ([2]; pH 3.0, 22° C., 30 min): 20% | % Assay of Pantoprazole Sodium ([2]; pH 3.0, 22° C., 60 min): 5% | % Assay of Pantoprazole Sodium ([2]; pH 3.0, 22° C., 120 min): 1% | % Assay of Pantoprazole Sodium ([2]; pH 3.0, 22° C., Initial): 81% | % Assay of Pantoprazole Sodium ([2]; pH 3.0, 40° C., 15 min): 3% | % Assay of Pantoprazole Sodium ([2]; pH 3.0, 40° C., 30 min): 2% | % Assay of Pantoprazole Sodium ([2]; pH 3.0, 40° C., 60 min): 2% | % Assay of Pantoprazole Sodium ([2]; pH 3.0, 40° C., 120 min): 1% | % Assay of Pantoprazole Sodium ([2]; pH 4.5, 22° C., 15 min): 97% | % Assay of Pantoprazole Sodium ([2]; pH 4.5, 22° C., 30 min): 96% | % Assay of Pantoprazole Sodium ([2]; pH 4.5, 22° C., 60 min): 94% | % Assay of Pantoprazole Sodium ([2]; pH 4.5, 22° C., 120 min): 89% | % Assay of Pantoprazole Sodium ([2]; pH 4.5, 22° C., Initial): 98% | % Assay of Pantoprazole Sodium ([2]; pH 4.5, 40° C., 15 min): 92% | % Assay of Pantoprazole Sodium ([2]; pH 4.5, 40° C., 30 min): 89% | % Assay of Pantoprazole Sodium ([2]; pH 4.5, 40° C., 60 min): 79% | % Assay of Pantoprazole Sodium ([2]; pH 4.5, 40° C., 120 min): 64% | % Assay of Pantoprazole Sodium ([2]; pH 5.5, 22° C., 15 min): 98% | % Assay of Pantoprazole Sodium ([2]; pH 5.5, 22° C., 30 min): 92% | % Assay of Pantoprazole Sodium ([2]; pH 5.5, 22° C., 60 min): 94% | % Assay of Pantoprazole Sodium ([2]; pH 5.5, 22° C., 120 min): 88% | % Assay of Pantoprazole Sodium ([2]; pH 5.5, 22° C., Initial): 98% | % Assay of Pantoprazole Sodium ([2]; pH 5.5, 40° C., 15 min): 97% | % Assay of Pantoprazole Sodium ([2]; pH 5.5, 40° C., 30 min): 86% | % Assay of Pantoprazole Sodium ([2]; pH 5.5, 40° C., 60 min): 77% | % Assay of Pantoprazole Sodium ([2]; pH 5.5, 40° C., 120 min): 53%
